{"source": "patent US20030148954A1", "about": "“Agents and methods for modulating activator protein-1-mediated cellular processes” (Wisconsin Alumni Research Foundation, priority 2001, published 2003)", "format_in_all_cases": "cell-based, human", "key": {"c-Fos": {"system": "c-Fos", "experiment": "Western blot of Fos protein", "conditions": "K562-NIC-1 versus K562-Babe", "method": "(§1) Stable Transfection—K562 cells were stably transfected by electroporation with a Bio-Rad Gene pulser electroporator. Cells (5×10^6) were washed with ice-cold PBS, resuspended in 0.5 ml of ice-cold PBS, mixed with 5 μg linearized plasmid DNA, and subjected to electroporation (960 microfarad; 220 V) in a 0.4 cm-wide electroporation cuvette (BTX). pBabe and pNIC-1 were linearized with NotI. Cells were then added to 20 ml of complete IMEM, grown for 48 h, and diluted in complete IMEM containing 1.5 μg/ml puromycin (pools of K562-Babe and K562-NIC-1 cells). Stably transfected cells were analyzed for erythroid differentiation as soon as the pools were generated by benzidine staining to reduce the probability of phenotypic changes that may result from prolonged growth.\n(§2) To measure the phosphorylation state of components of the MAPK pathway, K562-Babe and K562-NIC-1 cells (1×10^6) were collected after treatment with 5 nM TPA or DMSO for 30 min. Cells were washed once with ice-cold PBS, cell pellets were resuspended in 30 μl ice-cold PBS and were immediately boiled in 70 μl SDS sample buffer for 10 min. Proteins (10 μl) were resolved by SDS-PAGE on a 10% acrylamide gel and transferred to Immobilon P membrane (Millipore). […] Antigen-antibody complexes were detected with ECL Plus™ (Amersham Life Science) according to manufacturer's instructions."}, "NF-κB": {"system": "NF-κB", "experiment": "NF-κB luciferase reporter (p3×κBluc), transient transfection of K562 cells", "conditions": "TPA", "text": "(§3) Plasmids—The pBabe-NIC-1 (pNIC-1) expression vector encoding constitutively active Notch-1 (NIC-1) was described previously (36,37,51). This vector was derived from the pBabe-puro retroviral vector and includes a cDNA sequence encoding amino acids 1759-2556 of human Notch-1 with a Myc tag fused to its carboxyl terminus. Human NIC-1 deletion mutants were generated by PCR using a full-length human Notch-1 expression vector as the template. The Notch-dependent reporter plasmid containing four CBF1 binding sites and an simian virus 40 promoter fused to luciferase (p4×CBF1luc) was described previously (52). The AP-1 reporter plasmid (p1×AP1luc) containing a collagenase promoter fragment (−73/+67) with a single AP-1 binding site in the luciferase reporter vector pGL2-basic (Promega) was described previously (53). The NF-κB reporter plasmid (p3×κBluc) containing three NF-κB binding sites and a minimal promoter fused to luciferase was a kind gift of Dr. Shigeki Miyamoto (University of Wisconsin Medical School). […]\n(§4) For each transfection, cells were incubated for 26 h after transfection and then treated with TPA (final concentration: 5 nM) or the vehicle (DMSO). […] Luciferase activity was normalized by the protein content of the lysates, determined by Bradford assay using γ-globulin as a standard."}, "CSL (CBF1)": {"system": "CSL (CBF1)", "experiment": "CSL-dependent luciferase reporter, transient transfection of HeLa cells", "text": "as §3, §4"}, "IκBα": {"system": "IκBα", "experiment": "Northern blotting of IκBα transcripts in K562-Babe and K562-NIC-1 cells", "conditions": "5 nM TPA 12 h, stably transfected NIC-1", "method": "as §1\nNorthern Blotting—Total RNA from K562-Babe and K562-NIC-1 cells was extracted with Triazol (Life Technologies, Inc.). Ten μg of RNA per sample was electrophoresed on a 1% agarose, 6.6% formaldehyde gel and then transferred overnight to a Magnacharge nylon membrane (Osmonics). RNA was cross-linked to the membrane by UV irradiation. Membranes were prehybridized for 30 min at 60° C. in ExpressHyb hybridization solution (Clontech). […] Radioactivity was quantitated by PhosphorImager analysis with ImageQuant software (Molecular Dynamics)."}, "JNK": {"system": "JNK", "experiment": "Western blot with phospho-specific antibodies, JNK", "conditions": "K562-NIC-1 versus K562-Babe, 5 nM TPA 30 min", "method": "as §1, §2"}, "GAL4-c-Jun": {"system": "GAL4-c-Jun", "experiment": "GAL4-c-Jun transactivation, transient assays in K562 cells", "conditions": "K562, data not presented"}}, "data": [{"substance": "NIC-1: constitutively active Notch-1 intracellular domain, amino acids 1759-2556 of human Notch-1 with carboxyl-terminal Myc tag, expressed from pBabe-NIC-1", "values": [{"measurement": "effect on Fos protein levels", "setting": "c-Fos", "result": "did not affect"}, {"measurement": "effect on TPA-induced NF-κB-dependent reporter activity", "setting": "NF-κB", "result": "no effect"}, {"measurement": "activation of CSL-dependent reporter activity", "setting": "CSL (CBF1)", "result": "strongly activated"}, {"measurement": "effect on TPA induction of IκBα transcripts", "setting": "IκBα", "result": "no effect"}, {"measurement": "effect on TPA-induced or basal phosphorylation of JNK", "setting": "JNK", "result": "did not affect"}, {"measurement": "inhibition of GAL4-c-Jun-mediated transactivation", "setting": "GAL4-c-Jun", "result": "did not significantly inhibit"}]}]}
